We go through 2 compounds from patent publication EP0904128B1, “COMPOSITION AND SYSTEM FOR IONTOPHORETIC TRANSDERMAL DELIVERY OF DRUGS” (priority 1996, dated 1997).

Where two headings read alike, the source gives them in different places. Where only a bound is given, the exact number is not on record here.

The conditions of data set [1]: experiment 3; for salicylate release / permeation through epidermis: epidermis between fiber disc and phosphate buffer pH 7.4 (6 mM, µ=0.2), zero-order after lag time.
Protocol: Drug release in vitro from the fiber discs at 37 °C was tested in Franz diffusion cells (Crown Glass Co. Inc., Somerville, NJ) (Fig. 3). […] The fiber discs 10 were placed in the diffusion cells so that one side of the anionic ion-exchange fiber was exposed to the dissolution medium. The dissolution medium was pH 7.4 phosphate buffer saline (PBS, 143 mM, µ=0.15 (µ = ionic strength)) in experiment 1 and pH 7.4 phosphate buffer (6 mM, µ=0.2) in experiments 2 and 3. To assess the effect of the skin on drug release (experiment 3), a piece of epidermis 13 was placed between the fiber disc and buffer solution. At fixed times, samples of 250 µl were withdrawn and the drug concentration in the samples were determined by using HPLC (Beckman System Gold, Beckman Instrument, San Ramon, CA) with a Supelcosil LC-18-DB column (5 µm, 150 x 4.6 mm) (Supelco Inc., Rohm and Haab Co., Bellefonte, PA). The mobile phase was a binary mixture of methanol (40 % v/v) and pH 7.0 phosphate buffer (60 %). The detection wavelenght was 298 nm, and the flow rate of 1.0 ml/min, the retention time was 2.6 min.
The conditions of data set [2]: pH 7.0 phosphate buffer (200 mM) containing 6.27 g/l NaCl; donor solution 50 µg/ml; Hirvonen 1994; cited from earlier work.
The conditions of data set [3]: human, pH 7.4. On the procedure:
Electrodes for iontophoresis were prepared from silver wire and silver chloride (Aldrich-Chemie, Steinheim, Germany). Direct current (0,5 mA/cm^2) during iontophoresis was delivered by HP 6181C DC current source (Hewlett-Packard, Cupertino, CA) from the electrodes to the diffusion chambers via salt bridges. Salt bridges were prepared by injecting 1 M NaCl-gel (3 % agar) inside plastic tubing (diameter 4 mm, length ca. 15 cm). […] Transdermal permeation of ions increase most during iontophoresis due to electrostatic repulsion. […] Because Ag/AgCl-electrodes cause precipitation of phosphates, we used HEPES-buffer at pH 7,4 during the iontophoresis experiments. […] The chambers were connected in series as constant DC-current was used.

For data set [4] the following is noted: for Tacrine permeation Flux: Average ± standard deviation.
The conditions of data set [5]: in vivo; cited from earlier work.

With `O=C([O-])c1ccccc1O.[Na+]` [salicylate, Sodium salicylate], the “salicylate release / permeation through epidermis” value in data set [1] was “about 0.08 µg/h”; in data set [1] (listed as Salicylate) it was 0.08 µg/h. Moreover, the “Lag time before steady state release” value in data set [1] (with skin) is recorded as “about 2 h”. In addition, the “in vitro permeability of anionic salicylate through skin” value in data set [2] is “about 0.34 µg/cm^2/h”.

Regarding `Nc1c2c(nc3ccccc13)CCCC2` [tacrine, 9-amino-1,2,3,4-tetrahydroacridine], the “iontophoretic delivery compared to passive permeation from the ion-exchange fiber” value in data set [3] (3.5 %) is reported as > 10 000 -fold. Also, the “lag-time of drug permeation” value in data set [3] (5 %) is reported as “about 0,5 h”. In addition, the “Tacrine permeation Flux” value in data set [4] (Passive permeation (3.5 % in ion-exchange fiber)) amounted to 0.003±0.0006 µg/ h per cm^2. For the same compound, the “Tacrine permeation Flux” value in data set [4] (Passive permeation (5 % solution)) came to 2.95±0.66 µg/ h per cm^2. In addition, the Lag-time of permeation entry in data set [4] (human, 5 %, pH 7) is reported as “ca. 24 h”. Further, the “Delivery of tacrine across the skin from the cationic ion-exchange fiber” value in data set [4] (passive, 3,5 % tacrine in cationic ion-exchange fiber) is “about 0,003 g/h per cm^2”. For the same compound, in data set [4] (passive, 5 % solution, pH 7,4), the “Steady-state flux of tacrine across human skin in vitro” value was 2,95 g/h per cm^2. Further, in data set [5], the “Clearance CL” value was “about 150 l/h”, the “elimination half-life T1/2” value is on record as 1,4 - 3,6 h and the peroral bioavailability is listed as 5 - 35%.
